Data set [1] in a line: Summary of bioefficacy, plausibility and criticality of micronutrients in F2. The conditions noted are these: grade Low/medium/High, key not given. An excerpt: Summary Table of Bioefficacy, Plausibility and Criticality of Micronutrients in F2
A further data set has as its system gene expression. The conditions noted are these: hesperidin intake in humans; cited from earlier work.
The conditions of data set [2]: in vivo, cited from earlier work.
For data set [3] the following is noted: cited from earlier work.

For `CC(C)=CCC/C(C)=C/C=C/C(C)=C/C=C/C(C)=C/C=C/C=C(C)/C=C/C=C(C)/C=C/C=C(\C)CCC=C(C)C` [Lycopene, lycopene], in data set [1], the Bioefficacy result was “High”.
Turning to `CC1=C[C@H](O)CC(C)(C)[C@H]1/C=C/C(C)=C/C=C/C(C)=C/C=C/C=C(C)/C=C/C=C(C)/C=C/C1=C(C)C[C@@H](O)CC1(C)C` [Lutein, trans-lutein], in data set [1], the Bioefficacy entry was “medium”.
`COc1ccc([C@@H]2CC(=O)c3c(O)cc(O[C@@H]4O[C@H](CO[C@@H]5O[C@@H](C)[C@H](O)[C@@H](O)[C@H]5O)[C@@H](O)[C@H](O)[C@H]4O)cc3O2)cc1O` [Hesperidin, hesperidin]: in the data set with gene expression, the “number of genes whose expression is modulated” value is on record as “about 1,819 genes”. In data set [1], the Bioefficacy result is reported as “medium”.
For `C[Se]CC[C@H](N)C(=O)O` [Selenium, selenomethionine], the “reference dose (RfD) or NOAEL for Se” value in data set [2] (human) is 350 µg/day. The “reference dose (RfD) or NOAEL for Se per body weight” value in data set [2] was 5 ug Se/(kg body per day). For the same compound, the Bioefficacy result in data set [1] is “medium”.
`NCCC(=O)N[C@@H](Cc1cnc[nH]1)C(=O)O` [Carnosine, L-Carnosine]: the Bioefficacy entry in data set [1] was “Low”.
On to `CC(=O)Oc1c(C)c(C)c2c(c1C)CCC(C)(CCC[C@H](C)CCC[C@H](C)CCCC(C)C)O2` (stereo partly drawn) [RRRDL-alpha-Tocopherol Acetate], for which the “safe upper limit for adults” value in data set [3] is 273 mg/day.
Turning to `O=C1O[C@H]([C@@H](O)CO)C(O)=C1O` [Vitamin C, ascorbic acid], the Bioefficacy entry in data set [1] is on record as “medium”.
On to Vitamin E, for which the Bioefficacy result in data set [1] is on record as “Low”.

The values above are taken from patent US20240050466A1, “CELLULAR HEALTH NUTRITIONAL PRODUCT” (GLAXOSMITHKLINE CONSUMER HEALTHCARE HOLDINGS (US) LLC, priority 2020, published 2024).
